# PubChem BioAssay (NCI)
#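 The concentration for 50% growth inhibition is given as GI50. TGI: total growth inhibition.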
# How the values were obtained:
# Assay in all cases: NCI tumour cell line growth inhibition, 384-well format
# SF-295 CNS = tested on: SF-295 CNS
# HCT-116 colon = tested on: HCT-116 colon
# SK-MEL-5 melanoma = tested on: SK-MEL-5 melanoma
# TK-10 renal = tested on: TK-10 renal
# NCI-H226 lung = tested on: NCI-H226 lung
# PC-3 prostate = tested on: PC-3 prostate
# CCRF-CEM leukemia = tested on: CCRF-CEM leukemia
# CAKI-1 renal = tested on: CAKI-1 renal
# MALME-3M melanoma = tested on: MALME-3M melanoma
# M14 melanoma = tested on: M14 melanoma
# COLO 205 colon = tested on: COLO 205 colon
# HT29 colon = tested on: HT29 colon
# OVCAR-4 ovarian = tested on: OVCAR-4 ovarian
# LOX IMVI melanoma = tested on: LOX IMVI melanoma
# EKVX NSCLC = tested on: EKVX NSCLC
# NCI-H23 lung = tested on: NCI-H23 lung
# HOP-62 NSCLC = tested on: HOP-62 NSCLC
# RPMI-8226 leukemia = tested on: RPMI-8226 leukemia
# OVCAR-5 ovarian = tested on: OVCAR-5 ovarian
# UACC-257 melanoma = tested on: UACC-257 melanoma
# K-562 leukemia = tested on: K-562 leukemia
# U251 glioblastoma = tested on: U251 glioblastoma
# SF-268 CNS = tested on: SF-268 CNS
# NCI-H322M lung = tested on: NCI-H322M lung
# OVCAR-3 ovarian = tested on: OVCAR-3 ovarian
# T-47D breast = tested on: T-47D breast
# SK-OV-3 ovarian = tested on: SK-OV-3 ovarian
# NCI/ADR-RES ovarian = tested on: NCI/ADR-RES ovarian
# A549 NSCLC = tested on: A549 NSCLC
# UACC-62 melanoma = tested on: UACC-62 melanoma
# NCI-H460 NSCLC = tested on: NCI-H460 NSCLC
# KM12 colon = tested on: KM12 colon
# BT-549 breast = tested on: BT-549 breast
# SW-620 colon = tested on: SW-620 colon
# IGROV1 ovarian = tested on: IGROV1 ovarian
# 786-0 renal = tested on: 786-0 renal
# SK-MEL-28 melanoma = tested on: SK-MEL-28 melanoma
# HCC-2998 colon = tested on: HCC-2998 colon
# A498 renal = tested on: A498 renal
# SN12C renal = tested on: SN12C renal
# DU-145 prostate = tested on: DU-145 prostate
# MOLT-4 leukemia = tested on: MOLT-4 leukemia
# HCT-15 colon = tested on: HCT-15 colon
# MCF7 breast = tested on: MCF7 breast
# MDA-MB-468 breast = tested on: MDA-MB-468 breast
# UO-31 renal = tested on: UO-31 renal
# RXF 393 renal = tested on: RXF 393 renal
# HL-60(TB) leukemia = tested on: HL-60(TB) leukemia
# HOP-92 NSCLC = tested on: HOP-92 NSCLC
# SNB-75 CNS = tested on: SNB-75 CNS
# HS 578T breast = tested on: HS 578T breast
# SNB-19 CNS = tested on: SNB-19 CNS
# SF-539 CNS = tested on: SF-539 CNS
# OVCAR-8 ovarian = tested on: OVCAR-8 ovarian
# NCI-H522 lung = tested on: NCI-H522 lung
# ACHN renal = tested on: ACHN renal
# MDA-MB-231 breast = tested on: MDA-MB-231 breast
# MDA-MB-435 melanoma = tested on: MDA-MB-435 melanoma
smiles,measurement,setting,value
CN[C@@H](C)C(=O)N[C@H]1CN(C(=O)CC(C)C)CC[C@H]2CC[C@@H](C(=O)NC(c3ccccc3)c3ccccc3)N2C1=O,GI50,SF-295 CNS,> 100 µM
same,TGI,SF-295 CNS,> 100 µM
same,GI50,HCT-116 colon,> 100 µM
same,TGI,HCT-116 colon,> 100 µM
same,GI50,SK-MEL-5 melanoma,3.63 µM
same,TGI,SK-MEL-5 melanoma,21.8 µM
same,GI50,TK-10 renal,> 100 µM
same,TGI,TK-10 renal,> 100 µM
same,GI50,NCI-H226 lung,> 100 µM
same,TGI,NCI-H226 lung,> 100 µM
same,GI50,PC-3 prostate,> 100 µM
same,TGI,PC-3 prostate,> 100 µM
same,GI50,CCRF-CEM leukemia,15.8 µM
same,TGI,CCRF-CEM leukemia,> 100 µM
same,GI50,CAKI-1 renal,> 100 µM
same,TGI,CAKI-1 renal,> 100 µM
same,GI50,MALME-3M melanoma,0.542 µM
same,TGI,MALME-3M melanoma,11 µM
same,GI50,M14 melanoma,> 100 µM
same,TGI,M14 melanoma,> 100 µM
same,GI50,COLO 205 colon,> 100 µM
same,TGI,COLO 205 colon,> 100 µM
same,GI50,HT29 colon,39.8 µM
same,TGI,HT29 colon,> 100 µM
same,GI50,OVCAR-4 ovarian,167 nM
same,TGI,OVCAR-4 ovarian,1050 nM
same,GI50,LOX IMVI melanoma,> 100000 nM
same,TGI,LOX IMVI melanoma,> 100 µM
same,GI50,EKVX NSCLC,> 100 µM
same,TGI,EKVX NSCLC,> 100 µM
same,GI50,NCI-H23 lung,49 µM
same,TGI,NCI-H23 lung,> 100 µM
same,GI50,HOP-62 NSCLC,4.4 µM
same,TGI,HOP-62 NSCLC,> 100 µM
same,GI50,RPMI-8226 leukemia,24.4 µM
same,TGI,RPMI-8226 leukemia,> 100 µM
same,GI50,OVCAR-5 ovarian,> 100 µM
same,TGI,OVCAR-5 ovarian,> 100 µM
same,GI50,UACC-257 melanoma,24.7 µM
same,TGI,UACC-257 melanoma,55 µM
same,GI50,K-562 leukemia,56.6 µM
same,TGI,K-562 leukemia,> 100 µM
same,GI50,U251 glioblastoma,> 100000 nM
same,TGI,U251 glioblastoma,> 100 µM
same,GI50,SF-268 CNS,> 100 µM
same,TGI,SF-268 CNS,> 100 µM
same,GI50,NCI-H322M lung,> 100 µM
same,TGI,NCI-H322M lung,> 100 µM
same,GI50,OVCAR-3 ovarian,> 100000 nM
same,TGI,OVCAR-3 ovarian,> 100 µM
same,GI50,T-47D breast,> 100 µM
same,TGI,T-47D breast,> 100 µM
same,GI50,SK-OV-3 ovarian,357 nM
same,TGI,SK-OV-3 ovarian,9.16 µM
same,GI50,NCI/ADR-RES ovarian,> 100000 nM
same,TGI,NCI/ADR-RES ovarian,> 100 µM
same,GI50,A549 NSCLC,> 100 µM
same,TGI,A549 NSCLC,> 100 µM
same,GI50,UACC-62 melanoma,> 100 µM
same,TGI,UACC-62 melanoma,> 100 µM
same,GI50,NCI-H460 NSCLC,> 100000 nM
same,TGI,NCI-H460 NSCLC,> 100 µM
same,GI50,KM12 colon,> 100000 nM
same,TGI,KM12 colon,> 100 µM
same,GI50,BT-549 breast,21.8 µM
same,TGI,BT-549 breast,> 100 µM
same,GI50,SW-620 colon,> 100 µM
same,TGI,SW-620 colon,> 100 µM
same,GI50,IGROV1 ovarian,> 100 µM
same,TGI,IGROV1 ovarian,> 100 µM
same,GI50,786-0 renal,> 100 µM
same,TGI,786-0 renal,> 100 µM
same,GI50,SK-MEL-28 melanoma,> 100 µM
same,TGI,SK-MEL-28 melanoma,> 100 µM
same,GI50,HCC-2998 colon,12.5 µM
same,TGI,HCC-2998 colon,> 100 µM
same,GI50,A498 renal,> 100 µM
same,TGI,A498 renal,> 100 µM
same,GI50,SN12C renal,> 100 µM
same,TGI,SN12C renal,> 100 µM
same,GI50,DU-145 prostate,> 100 µM
same,TGI,DU-145 prostate,> 100 µM
same,GI50,MOLT-4 leukemia,35.1 µM
same,TGI,MOLT-4 leukemia,> 100 µM
same,GI50,HCT-15 colon,> 100000 nM
same,TGI,HCT-15 colon,> 100 µM
same,GI50,MCF7 breast,83.8 µM
same,TGI,MCF7 breast,> 100 µM
same,GI50,MDA-MB-468 breast,2780 nM
same,TGI,MDA-MB-468 breast,72.1 µM
same,GI50,UO-31 renal,> 100 µM
same,TGI,UO-31 renal,> 100 µM
same,GI50,RXF 393 renal,823 nM
same,TGI,RXF 393 renal,20 µM
same,GI50,HL-60(TB) leukemia,1560 nM
same,TGI,HL-60(TB) leukemia,12.1 µM
same,GI50,HOP-92 NSCLC,13.8 µM
same,TGI,HOP-92 NSCLC,50.7 µM
same,GI50,SNB-75 CNS,49.9 µM
same,TGI,SNB-75 CNS,> 100 µM
same,GI50,HS 578T breast,16.4 µM
same,TGI,HS 578T breast,> 100 µM
same,GI50,SNB-19 CNS,> 100 µM
same,TGI,SNB-19 CNS,> 100 µM
same,GI50,SF-539 CNS,> 100000 nM
same,TGI,SF-539 CNS,> 100 µM
same,GI50,OVCAR-8 ovarian,68.8 µM
same,TGI,OVCAR-8 ovarian,> 100 µM
same,GI50,NCI-H522 lung,5.58 µM
same,TGI,NCI-H522 lung,> 100 µM
same,GI50,ACHN renal,> 100 µM
same,TGI,ACHN renal,> 100 µM
Cc1cccc(-c2nn3c(c2-c2ccnc4ccc(C(N)=O)cc24)CCC3)n1,GI50,HCT-116 colon,3.65 µM
same,TGI,HCT-116 colon,12.3 µM
same,GI50,SK-MEL-5 melanoma,2.55 µM
same,TGI,SK-MEL-5 melanoma,6.56 µM
same,GI50,PC-3 prostate,3.64 µM
same,TGI,PC-3 prostate,11.8 µM
same,GI50,CAKI-1 renal,3.9 µM
same,TGI,CAKI-1 renal,14.1 µM
same,GI50,MALME-3M melanoma,5.57 µM
same,TGI,MALME-3M melanoma,16.4 µM
same,GI50,HT29 colon,2.37 µM
same,TGI,HT29 colon,6.01 µM
same,GI50,LOX IMVI melanoma,2770 nM
same,TGI,LOX IMVI melanoma,7.47 µM
same,GI50,EKVX NSCLC,3.92 µM
same,TGI,EKVX NSCLC,12.8 µM
same,GI50,RPMI-8226 leukemia,1.74 µM
same,TGI,RPMI-8226 leukemia,3.13 µM
same,GI50,MDA-MB-231 breast,4.81 µM
same,TGI,MDA-MB-231 breast,16.6 µM
same,GI50,UACC-257 melanoma,6.22 µM
same,TGI,UACC-257 melanoma,19.7 µM
same,GI50,U251 glioblastoma,2650 nM
same,TGI,U251 glioblastoma,8.58 µM
same,GI50,SF-268 CNS,3.05 µM
same,TGI,SF-268 CNS,9.5 µM
same,GI50,NCI-H322M lung,3.86 µM
same,TGI,NCI-H322M lung,16.6 µM
same,GI50,OVCAR-3 ovarian,2150 nM
same,TGI,OVCAR-3 ovarian,3.96 µM
same,GI50,T-47D breast,3.64 µM
same,TGI,T-47D breast,16.8 µM
same,GI50,SK-OV-3 ovarian,3170 nM
same,TGI,SK-OV-3 ovarian,10.4 µM
same,GI50,NCI/ADR-RES ovarian,2170 nM
same,TGI,NCI/ADR-RES ovarian,4.48 µM
same,GI50,A549 NSCLC,3.93 µM
same,TGI,A549 NSCLC,14.3 µM
same,GI50,NCI-H460 NSCLC,2370 nM
same,TGI,NCI-H460 NSCLC,5.92 µM
same,GI50,KM12 colon,2470 nM
same,TGI,KM12 colon,6.04 µM
same,GI50,BT-549 breast,2.41 µM
same,TGI,BT-549 breast,5.7 µM
same,GI50,SW-620 colon,5.1 µM
same,TGI,SW-620 colon,15.6 µM
same,GI50,SK-MEL-28 melanoma,6.9 µM
same,TGI,SK-MEL-28 melanoma,19.7 µM
same,GI50,HCC-2998 colon,3.78 µM
same,TGI,HCC-2998 colon,13.2 µM
same,GI50,A498 renal,3.34 µM
same,TGI,A498 renal,12 µM
same,GI50,MDA-MB-435 melanoma,1950 nM
same,TGI,MDA-MB-435 melanoma,3.83 µM
same,GI50,HCT-15 colon,2970 nM
same,TGI,HCT-15 colon,10.6 µM
same,GI50,RXF 393 renal,2020 nM
same,TGI,RXF 393 renal,4.6 µM
same,GI50,HL-60(TB) leukemia,2080 nM
same,TGI,HL-60(TB) leukemia,3.57 µM
same,GI50,SNB-75 CNS,2.52 µM
same,TGI,SNB-75 CNS,11.3 µM
same,GI50,HS 578T breast,1.74 µM
same,TGI,HS 578T breast,3.65 µM
same,GI50,SF-539 CNS,2440 nM
same,TGI,SF-539 CNS,5.39 µM
same,GI50,NCI-H522 lung,1.8 µM
same,TGI,NCI-H522 lung,4.1 µM
